# Assay: Cell viability assay (MTT), VERO
# Format: cell-based, Cercopithecus aethiops
# Settings: African green monkey (Cercopithecus aethiops), VERO kidney epithelial cells
# In short: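 L929 and VERO cells seeded at 1.0 × 10^4/well, attached 24 h, then exposed 24 h to compounds at 0.9–125.00 μg/ml (from DMSO stock). MTT (1 mg/ml) added for 2 h at 37 °C, formazan dissolved in DMSO, OD read at 550 nm. Viability expressed as percentage of 2.5% DMSO-treated controls; triplicate.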
Compound,"viability at 24 h, 0.9 µg/ml","viability at 24 h, 1.8 µg/ml","viability at 24 h, 3.9 µg/ml","viability at 24 h, 7.8 µg/ml","viability at 24 h, 15.6 µg/ml","viability at 24 h, 31.2 µg/ml","viability at 24 h, 62.5 µg/ml","viability at 24 h, 125 µg/ml"
"C/C(=N\Nc1nc(-c2ccc(Cl)cc2)cs1)c1ccc(Nc2nc(N)nc(N)n2)cc1 [Compound 4b, (E)-N^2-(4-(1-(2-(4-(4-chlorophenyl)-1,3-thiazol-2-yl)hydrazinylidene)ethyl)phenyl)-1,3,5-triazine-2,4,6-triamine]",93.5%,95.8%,90.1%,94.7%,103%,115%,115%,113%
"C/C(=N\Nc1nc(-c2ccccc2)cs1)c1ccc(Nc2nc(N)nc(N)n2)cc1 [Compound 4k, (E)-N^2-(4-(1-(2-(4-phenyl-1,3-thiazol-2-yl)hydrazinylidene)ethyl)phenyl)-1,3,5-triazine-2,4,6-triamine]",91.9%,95.5%,99.3%,95.7%,104%,106%,113%,113%
"C/C(=N\Nc1nc(-c2ccc([N+](=O)[O-])cc2)cs1)c1ccc(Nc2nc(N)nc(N)n2)cc1 [Compound 4h, (E)-N^2-(4-(1-(2-(4-(4-nitrophenyl)-1,3-thiazol-2-yl)hydrazinylidene)ethyl)phenyl)-1,3,5-triazine-2,4,6-triamine]",104%,99.4%,106%,109%,110%,109%,109%,104%
"C/C(=N\Nc1nc(-c2ccc(Br)cc2)cs1)c1ccc(Nc2nc(N)nc(N)n2)cc1 [Compound 4d, (E)-N^2-(4-(1-(2-(4-(4-bromophenyl)-1,3-thiazol-2-yl)hydrazinylidene)ethyl)phenyl)-1,3,5-triazine-2,4,6-triamine]",99.9%,94.4%,90.1%,86%,104%,114%,100%,112%
"C/C(=N\Nc1nc(-c2ccc(Cl)c(Cl)c2)cs1)c1ccc(Nc2nc(N)nc(N)n2)cc1 [Compound 4i, (E)-N^2-(4-(1-(2-(4-(3,4-dichlorophenyl)-1,3-thiazol-2-yl)hydrazinylidene)ethyl)phenyl)-1,3,5-triazine-2,4,6-triamine]",97.5%,93.7%,93.9%,92.6%,97.3%,112%,111%,–
"C/C(=N\Nc1nc(-c2ccc(F)cc2)cs1)c1ccc(Nc2nc(N)nc(N)n2)cc1 [Compound 4a, (E)-N^2-(4-(1-(2-(4-(4-fluorophenyl)-1,3-thiazol-2-yl)hydrazinylidene)ethyl)phenyl)-1,3,5-triazine-2,4,6-triamine]",90.5%,97.6%,100%,95.9%,103%,107%,105%,100%
"C/C(=N\Nc1nc(-c2ccc(C)cc2)cs1)c1ccc(Nc2nc(N)nc(N)n2)cc1 [Compound 4c, (E)-N^2-(4-(1-(2-(4-(4-tolyl)-1,3-thiazol-2-yl)hydrazinylidene)ethyl)phenyl)-1,3,5-triazine-2,4,6-triamine]",92.4%,102%,99%,101%,99.6%,102%,112%,109%
"C/C(=N\Nc1nc(-c2ccc(I)cc2)cs1)c1ccc(Nc2nc(N)nc(N)n2)cc1 [Compound 4e, (E)-N^2-(4-(1-(2-(4-(4-iodophenyl)-1,3-thiazol-2-yl)hydrazinylidene)ethyl)phenyl)-1,3,5-triazine-2,4,6-triamine]",100%,100%,97%,87.3%,101%,113%,117%,113%

# From publication PMC5854716, “Synthesis, molecular docking, ctDNA interaction, DFT calculation and evaluation of antiproliferative and anti-Toxoplasma gondii activities of 2,4-diaminotriazine-thiazole derivatives” (Medicinal Chemistry Research, 2018)
